These results are taken from patent US8273762B2, “Hexahydro-pyrrolo-isoquinoline compounds” (Janssen Pharmaceutica NV, priority 2005, dated 2012).

Where two headings read alike, the source gives them in different places.

The Ki is a measure of affinity in units of concentration, obtained from inhibition or displacement. A higher Ki goes with lower affinity.

Test [1] concerns the target T1, cloned human H3 receptor, stably expressed in SK-N-MC cells (Homo sapiens, UniProt Q9Y5N1).
T1 construct: expressed in transfected cells
Description: H3 receptor binding (N-[3H]-α-methylhistamine displacement). Conditions: SK-N-MC membranes, 0.8 nM N-[3H]-α-methylhistamine.

For test [2], the target named is T2, human SERT (HEK293 membranes) (Homo sapiens, UniProt P31645).
T2 construct: purchased Perkin-Elmer; host or cells: HEK293 membranes
In words: Human SERT binding (3H-citalopram displacement).
Description: Nonspecific binding was determined in the presence of 10 μM fluoxetine for the SERT. The membranes were washed and the radioactivity was counted as above.

The target of test [3] is T3, human H3 receptor (SK-N-MC cells) (Homo sapiens, UniProt Q9Y5N1).
T3 construct: expressed in transfected cells; host or cells: SK-N-MC sublines with CRE-beta-galactosidase reporter
In words: Cyclic AMP accumulation (β-galactosidase reporter, Schild analysis vs histamine). Format: cell-based.

T2 sequence (P31645 whole entry): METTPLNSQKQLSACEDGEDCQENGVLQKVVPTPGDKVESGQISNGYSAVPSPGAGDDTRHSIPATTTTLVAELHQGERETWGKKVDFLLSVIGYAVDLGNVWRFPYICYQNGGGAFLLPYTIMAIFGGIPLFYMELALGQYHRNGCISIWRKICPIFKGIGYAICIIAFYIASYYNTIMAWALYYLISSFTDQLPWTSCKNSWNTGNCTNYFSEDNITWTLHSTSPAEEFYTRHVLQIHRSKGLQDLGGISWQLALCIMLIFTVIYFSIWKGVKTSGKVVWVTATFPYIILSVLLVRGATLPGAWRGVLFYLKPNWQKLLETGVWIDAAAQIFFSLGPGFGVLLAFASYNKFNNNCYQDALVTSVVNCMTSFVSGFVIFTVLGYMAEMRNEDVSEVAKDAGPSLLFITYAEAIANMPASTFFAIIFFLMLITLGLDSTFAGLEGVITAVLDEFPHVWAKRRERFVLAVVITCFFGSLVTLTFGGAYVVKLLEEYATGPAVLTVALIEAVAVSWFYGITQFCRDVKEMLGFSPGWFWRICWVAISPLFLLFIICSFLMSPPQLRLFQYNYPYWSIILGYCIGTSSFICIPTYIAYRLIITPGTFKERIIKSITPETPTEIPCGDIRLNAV
T3 sequence (Q9Y5N1 whole entry): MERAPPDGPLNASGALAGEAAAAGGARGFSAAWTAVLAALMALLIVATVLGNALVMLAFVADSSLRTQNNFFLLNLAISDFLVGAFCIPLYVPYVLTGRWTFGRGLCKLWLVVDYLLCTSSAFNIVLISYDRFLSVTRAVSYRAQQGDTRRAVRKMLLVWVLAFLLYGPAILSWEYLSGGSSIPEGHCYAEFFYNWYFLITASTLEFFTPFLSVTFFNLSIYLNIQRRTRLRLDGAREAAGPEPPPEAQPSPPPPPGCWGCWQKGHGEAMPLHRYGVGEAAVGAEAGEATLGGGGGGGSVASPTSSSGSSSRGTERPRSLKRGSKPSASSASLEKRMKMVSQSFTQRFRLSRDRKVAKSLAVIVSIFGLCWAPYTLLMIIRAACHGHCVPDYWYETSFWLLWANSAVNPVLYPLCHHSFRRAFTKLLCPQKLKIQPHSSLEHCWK
T1 sequence (Q9Y5N1 whole entry): as above

On to `O=[N+]([O-])c1ccc([C@H]2CN3CCC[C@H]3c3cc(OCCCN4CCCCC4)ccc32)cc1` (relative stereo) [Example 2A, Cis-6-(4-Nitro-phenyl)-9-(3-piperidin-1-yl-propoxy)-1,2,3,5,6,10b-hexahydro-pyrrolo[2,1-a]isoquinoline], for which the figures for the Ki in test [1] and in test [2] were 1 nM and 6 nM, respectively. Moreover, the Kb in test [3] (read-out: H3 pA2 (converted)) is 0.398 nM.
With `Nc1ccc([C@H]2CN3CCC[C@H]3c3cc(OCCCN4CCCCC4)ccc32)cc1` (relative stereo) [Example 3], the figures for the inhibition constant Ki in test [1] and in test [2] were 0.5 nM and 8 nM, respectively. In test [3] (read-out: H3 pA2 (converted)), the Kb was 0.0794 nM.
Consider `O=[N+]([O-])c1cccc([C@H]2CN3CCC[C@H]3c3cc(OCCCN4CCCCC4)ccc32)c1` (relative stereo) [Example 4A, Cis-6-(3-Nitro-phenyl)-9-(3-piperidin-1-yl-propoxy)-1,2,3,5,6,10b-hexahydro-pyrrolo[2,1-a]isoquinoline], for which the Ki worked out at 1 nM in test [1] and 4 nM in test [2]. In addition, the Kb in test [3] (read-out: H3 pA2 (converted)) was 0.126 nM.
The matching figures for `Cc1ccc([C@H]2CN3CCC[C@H]3c3cc(OCCCN4CCCCC4)ccc32)cc1` (relative stereo) [Example 5A, Cis-9-(3-Piperidine-1-yl-propoxy)-6-p-tolyl-1,2,3,5,6,10b-hexahydro-pyrrolo[2,1-a]isoquinoline]: 2 nM, 4 nM and 2.51 nM.
For `Clc1ccc([C@@H]2CN3CCC[C@H]3c3cc(OCCCN4CCCCC4)ccc32)cc1Cl` (relative stereo) [Example 6A, Cis-6-(3,4-Dichloro-phenyl)-9-(3-piperidin-1-yl-propoxy)-1,2,3,5,6,10b-hexahydro-pyrrolo[2,1-a]isoquinoline] the same measures were 3 nM, 4 nM and 6.31 nM.
As to `FC(F)(F)c1ccc([C@H]2CN3CCC[C@H]3c3cc(OCCCN4CCCCC4)ccc32)cc1` (relative stereo) [Example 7A, Cis-9-(3-Piperidin-1-yl-propoxy)-6-(4-trifluoromethyl-phenyl)-1,2,3,5,6,10b-hexahydro-pyrrolo[2,1-a]isoquinoline], the Ki in test [1] worked out at 5 nM; in test [2] it was 12 nM. For the same compound, in test [3] (read-out: H3 pA2 (converted)), the Kb is 6.31 nM.
Consider `Clc1ccccc1[C@@H]1CN2CCC[C@H]2c2cc(OCCCN3CCCCC3)ccc21` (relative stereo) [Example 12A, Cis-6-(2-Chloro-phenyl)-9-(3-piperidin-1-yl-propoxy)-1,2,3,5,6,10b-hexahydro-pyrrolo[2,1-a]isoquinoline], for which the inhibition constant Ki is 2 nM in test [1] and 8 nM in test [2]. Also, the Kb in test [3] (read-out: H3 pA2 (converted)) was 1.26 nM.
In the case of `Clc1ccccc1[C@H]1CN2CCC[C@H]2c2cc(OCCCN3CCCCC3)ccc21` (relative stereo) [Example 12B, Trans-6-(2-Chloro-phenyl)-9-(3-piperidin-1-yl-propoxy)-1,2,3,5,6,10b-hexahydro-pyrrolo[2,1-a]isoquinoline], in test [1], the Ki is 1 nM. Besides, the Kb in test [3] (read-out: H3 pA2 (converted)) was 0.631 nM.
In turn, `COc1ccccc1[C@H]1CN2CCC[C@H]2c2cc(OCCCN3CCCCC3)ccc21` (relative stereo) [Example 13A] yielded a Ki in test [2] of 21 nM. This counts as double-digit nanomolar.
`Fc1ccc([C@@H]2CN3CCC[C@H]3c3cc(OCCCN4CCCCC4)ccc32)cc1` (relative stereo) [Example 14A, Cis-6-(4-Fluoro-phenyl)-9-(3-piperidin-1-yl-propoxy)-1,2,3,5,6,10b-hexahydro-pyrrolo[2,1-a]isoquinoline]: the Ki was 2 nM in test [1] and 3 nM in test [2]. For the same compound, the Kb in test [3] (read-out: H3 pA2 (converted)) is 1 nM.
For the compound `Fc1ccc([C@H]2CN3CCC[C@H]3c3cc(OCCCN4CCCCC4)ccc32)cc1` (relative stereo) [Example 14B, Trans-6-(4-Fluoro-phenyl)-9-(3-piperidin-1-yl-propoxy)-1,2,3,5,6,10b-hexahydro-pyrrolo[2,1-a]isoquinoline], the Ki in test [1] is 1 nM. The Kb in test [3] (read-out: H3 pA2 (converted)) was 0.794 nM.
As to `Oc1cccc([C@H]2CN3CCC[C@H]3c3cc(OCCCN4CCCCC4)ccc32)c1` (relative stereo) [Example 15], the Ki in test [1] is 0.7 nM; in test [2], 3 nM. The Kb in test [3] (read-out: H3 pA2 (converted)) was 0.126 nM.
Compound `c1ccc([C@H]2CN3CCC[C@H]3c3cc(OCCCN4CCCCC4)ccc32)nc1` (relative stereo) [Example 25] registered an inhibitory constant (Ki) in test [1] of 0.8 nM. Also, the Kb in test [3] is 0.1 nM.
Compound `c1cncc([C@H]2CN3CCC[C@H]3c3cc(OCCCN4CCCCC4)ccc32)c1` (relative stereo) [Example 26] yielded a Ki in test [1] of 0.8 nM. The Kb in test [3] (read-out: H3 pA2 (converted)) was 0.0794 nM.
On to `COc1ccc([C@H]2CN3CCC[C@H]3c3cc(OCC4CCN(C(C)C)CC4)ccc32)cc1` (relative stereo) [Example 29], for which the Ki in test [1] is 0.9 nM; in test [2], 2 nM.
`Cc1cccc([C@H]2CN3CCC[C@H]3c3cc(OCCCN4CCCCC4)ccc32)c1` (relative stereo) [Example 31]: the inhibition constant (Ki) turned out to be 12 nM in test [1] and 28 nM in test [2].
Compound `Ic1ccc([C@H]2CN3CCC[C@H]3c3cc(OCCCN4CCCCC4)ccc32)cc1` (relative stereo) [Example 35B, Trans-6-(4-Iodo-phenyl)-9-(3-piperidin-1-yl-propoxy)-1,2,3,5,6,10b-hexahydro-pyrrolo[2,1-a]isoquinoline] showed a Ki in test [1] of 2 nM. The Kb in test [3] (read-out: H3 pA2 (converted)) was 3.16 nM.
Consider `COc1ccc([C@H]2CN3CCC[C@H]3c3cc(OCCCN4CCOCC4)ccc32)cc1` (relative stereo) [Example 38], for which, in test [2], the affinity corresponds to a Ki of 7 nM.
In the case of `CSc1ccc([C@H]2CN3CCC[C@H]3c3cc(OCCCN4CCCCC4)ccc32)cc1` (relative stereo) [Example 39A, Cis-6-(4-Methylsulfanyl-phenyl)-9-(3-piperidin-1-yl-propoxy)-1,2,3,5,6,10b-hexahydro-pyrrolo[2,1-a]isoquinoline], the Ki in test [1] was 2 nM; in test [2], 4 nM.
As for `Brc1ccc([C@H]2CN3CCC[C@H]3c3cc(OCCCN4CCCCC4)ccc32)cc1` (relative stereo) [Example 40], the results for the Ki in test [1] and in test [2] were 3 nM and 18 nM, respectively.
For the compound `COc1ccc([C@H]2CN3CCC[C@H]3c3cc(OCCCN4CCC(F)CC4)ccc32)cc1` (relative stereo) [Example 47], the inhibitory constant (Ki) in test [1] was determined as 3 nM; in test [2] it was 5 nM.
For `Clc1ccc([C@@H]2CN3CCC[C@H]3c3cc(OCCCN4CCCCC4)ccc32)cc1` (relative stereo) [Example 66A, Cis-6-(4-Chloro-phenyl)-9-(3-piperidin-1-yl-propoxy)-1,2,3,5,6,10b-hexahydro-pyrrolo[2,1-a]isoquinoline] the same measures were 2 nM and 6 nM.
`CSc1ccc([C@H]2CN3CCC[C@H]3c3ccc(C#CCCN4CCCCC4)cc32)cc1` (relative stereo) [Example 97B, Trans-6-(4-methylsulfanyl-phenyl)-8-(4-piperidin-1-yl-but-1-ynyl)-1,2,3,5,6,10b-hexahydro-pyrrolo[2,1-a]isoquinoline] displayed an inhibition constant Ki in test [1] of 12 nM. Moreover, in test [3] (read-out: H3 pA2 (converted)), the Kb was 10 nM.
The matching figures for `CSc1ccc([C@H]2CN3CCC[C@H]3c3cc(C#CCCN4CCCCC4)ccc32)cc1` (relative stereo) [Example 98B, Trans-6-(4-methylsulfanyl-phenyl)-9-(4-piperidin-1-yl-but-1-ynyl)-1,2,3,5,6,10b-hexahydro-pyrrolo[2,1-a]isoquinoline]: 3 nM and 2.51 nM.
